We go through 3 molecules from US4107424A, “1-N-[(S)-α-hydroxy-ω-aminoacyl] derivatives of 3',4'-dideoxykanamycin B and 3'-deoxykanamycin B antibiotics” (Zaidan Hojin Biseibutsu Kagaku Kenkyu Kai, priority 1972, dated 1978).

In brackets after ≈: the same amount, converted by molar mass. Where two headings read alike, the source gives them in different places.

Data set [1] has as its system kanamycin-resistant strains. The following applies: strains producing 3'-hydroxyl phosphorylating enzyme; cited from earlier work.
Data set [2] deals with Pseudomonas aeruginosa GN 315. Kind of data set: Minimal inhibitory concentration, agar dilution streak method. The data set is classed as cell-based. To be noted: GN315, nutrient agar, 37° C, 18 hours. Here is the method:
(§1) *Agar Agar dilution streak method (nutrient agar, 37° C, 18 hours)
(§2) *Agar dilution streak method (nutrient agar, 37° C, 18 hours).
On the technique in general: In agar dilution the substance is mixed into plates at graded concentrations.

For data set [3], the system named is Escherichia coli K-12 JR 66/W 677. The description is as above. The following applies: Escherichia coli, 18 h. The data set is classed as cell-based. The method, then: as §1, §2
Data set [4] relates to Escherichia coli K-12 ML 1629. The data set is described as above. Format: cell-based. To be noted: K12ML1629, nutrient agar, 37° C, 18 hours. The method, then: as §1, §2
Data set [5] concerns Escherichia coli K-12 LA 290 R 55. The data set is described as above. The data set is classed as cell-based. The following applies: 18 h. The method, then:
as §1, §2

Data set [6] relates to gram-positive and gram-negative bacteria. As to the kind of experiment: Antibacterial activity (in words). Format: cell-based. The method, then: (§3) [α]D^22 + 38°, (c 0.85, water).
Data set [7] concerns Klebsiella pneumoniae PCI 602. Kind of data set: Minimal inhibitory concentration, agar dilution streak method. The data set is classed as cell-based. To be noted: PCI602, nutrient agar, 37° C, 18 hours. Here is the method:
as §3, §1, §2

The subject of data set [8] is Pseudomonas aeruginosa 99. The description is as above. Format: cell-based. To be noted: nutrient agar, 37° C, 18 hours, read-out: Minimal inhibitory concentration. The method, then:
as §3, §1, §2

Another data set relates to Salmonella typhosa T-63. The description is as above. The data set is classed as cell-based. The following applies: Salmonella enterica, nutrient agar, 37° C, 18 hours. The method, then: as §3, §1, §2
Another data set concerns Escherichia coli NIHJ. The description is as above. Format: cell-based. To be noted: nutrient agar, 37° C, 18 hours. Here is the method:
as §3, §1, §2

Another data set deals with Sarcina lutea PCI 1001. The description is as above. The data set is classed as cell-based. To be noted: Micrococcus luteus, PCI1001; nutrient agar, 37° C, 18 hours; read-out: Minimal inhibitory concentration. Here is the method: as §3, §1, §2
For data set [9], the system named is Escherichia coli K-12 R-5. Described as above. The data set is classed as cell-based. To be noted: K12R5, nutrient agar, 37° C, 18 hours. The method, then:
as §3, §1, §2

Data set [10] relates to Bacillus subtilis NRRL B-558. Described as above. The data set is classed as cell-based. To be noted: NRRLB558, nutrient agar, 37° C, 18 hours. Here is the method:
as §3, §1, §2

The next data set relates to Proteus rettgeri GN 311. Described as above. To be noted: Providencia rettgeri, GN311; nutrient agar, 37° C, 18 hours. The data set is classed as cell-based. The method, then:
as §3, §1, §2

For data set [11], the system named is Escherichia coli J 5 R 11-2. Described as above. Format: cell-based. The following applies: J5R112, 18 h, read-out: Minimal inhibitory concentration. The method, then:
as §3, §1, §2

A further data set has as its system Proteus rettgeri GN 466. The description is as above. The data set is classed as cell-based. The following applies: Providencia rettgeri, GN466; nutrient agar, 37° C, 18 hours. The method, then:
as §3, §1, §2

Data set [12] has as its system Escherichia coli K-12 C 600 R 135. The data set is described as above. The data set is classed as cell-based. To be noted: 18 h, read-out: Minimal inhibitory concentration. The method, then: as §3, §1, §2
Data set [13] relates to Mycobacterium smegmatis ATCC 607. The data set is described as above. The data set is classed as cell-based. The following applies: Mycolicibacterium smegmatis, ATCC607; nutrient agar, 37° C, 48 hours; read-out: Minimal inhibitory concentration.
A further data set concerns mice. Kind of data set: Acute intravenous toxicity (LD50) in mice. The following applies: in words.
Another data set can be described thus: in vivo. To be noted: mouse, iv.
The subject of data set [14] is Pseudomonas aeruginosa A 3. Kind of data set: Minimal inhibitory concentration, agar dilution streak method. Format: cell-based. To be noted: A3, nutrient agar, 37° C, 18 hours, read-out: Minimal inhibitory concentration. Here is the method: as §1, §2
The test system of data set [15] is Escherichia coli K-12 W 677. The data set is described as above. Format: cell-based. To be noted: K12W677, nutrient agar, 37° C, 18 hours, read-out: Minimal inhibitory concentration. Here is the method:
as §1, §2

Data set [16] relates to Klebsiella pneumoniae type 22 #3038. Described as above. The following applies: Klebsiella pneumoniae; nutrient agar, 37° C, 18 hours. The data set is classed as cell-based. The method, then:
as §1, §2

Data set [17] deals with Escherichia coli K-12 LA 290 R 64. The description is as above. Format: cell-based. To be noted: nutrient agar, 37° C, 18 hours, read-out: Minimal inhibitory concentration. The method, then: as §1, §2
Data set [18] concerns Escherichia coli K-12 ML 1630. The data set is described as above. The data set is classed as cell-based. The following applies: K12ML1630, nutrient agar, 37° C, 18 hours, read-out: Minimal inhibitory concentration. The method, then:
as §1, §2

Data set [19] deals with Pseudomonas aeruginosa No.12. Described as above. The data set is classed as cell-based. To be noted: nutrient agar, 37° C, 18 hours, read-out: Minimal inhibitory concentration. Here is the method: as §1, §2
For data set [20], the system named is Escherichia coli K-12 LA 290 R 56. The description is as above. The data set is classed as cell-based. The following applies: 18 h, read-out: Minimal inhibitory concentration. Here is the method: as §1, §2
For data set [21], the system named is Pseudomonas aeruginosa TI-13. Described as above. To be noted: TI13, nutrient agar, 37° C, 18 hours, read-out: Minimal inhibitory concentration. Format: cell-based. Here is the method:
as §1, §2

The mark [22] stands for this setting: drug-resistant strain, read-out: minimum inhibitory concentrations.
The mark [23] stands for this setting: read-out: minimum inhibitory concentrations.
[24] abbreviates: read-out: Minimal inhibitory concentration.

For `NCC1OC(OC2C(N)CC(N)C(OC3OC(CO)C(O)C(N)C3O)C2O)C(O)CC1O` (stereo not shown) [3'-deoxykanamycin], the “activity against kanamycin-resistant strains” value in [1] was “actually effective”.

In the case of `NC[C@H]1O[C@H](O[C@H]2[C@H](O)[C@@H](O)[C@H](N)C[C@@H]2N)[C@H](N)C[C@@H]1O` [3'-deoxyneamine], the “activity against kanamycin-resistant strains” value in data set [1] is recorded as “actually effective”. Also, the MIC in [2] (setting [22]) is above 100 µg/mL; in data set [3] (setting [23]), above 100 µg/mL; in data set [4] (setting [22]), 6.25 µg/mL (≈ 20.4 µM); in data set [5] (setting [23]), 100 µg/mL (≈ 326 µM).

Broadly, the LD50 is the dose at which mortality reaches 50%. With `NCC[C@H](O)C(=O)N[C@@H]1C[C@H](N)[C@@H](O[C@H]2O[C@H](CN)CC[C@H]2N)[C@H](O)[C@H]1O` [AHB-dideoxyneamine, 1-N-[(S)-4-amino-2-hydroxybutyryl]-3',4'-dideoxyneamine], the “antibacterial activity compared with parent or reference substance” value in [6] (sensitive (and resistant) bacteria) is “higher antibacterial activity than that of the parent substance, 3',4'-dideoxyneamine, against both sensitive and resistant bacteria”. Also, the antibacterial activity result in data set [6] (various gram-positive and gram-negative bacteria, including resistant strains) was “exhibits a antibacterial activity against various gram-positive and gram-negative bacteria, including the kanamycin-resistant strains”. Further, the MIC was found to be 6.25 µg/mL (≈ 16 µM) in data set [7]; 25 µg/mL (≈ 63.9 µM) in data set [8]; 1.56 µg/mL (≈ 3.98 µM) against Salmonella typhosa T-63; 3.12 µg/mL (≈ 7.97 µM) against Escherichia coli NIHJ; 25 µg/mL (≈ 63.9 µM) with Sarcina lutea PCI 1001; 50 µg/mL (≈ 128 µM) in [9]. Also, the MIC in data set [10] is below 0.39 µg/mL; with Proteus rettgeri GN 311, 25 µg/mL (≈ 63.9 µM); in data set [11] it was 6.25 µg/mL (≈ 16 µM); in the data set on Proteus rettgeri GN 466, 12.5 µg/mL (≈ 31.9 µM); in data set [12], 12.5 µg/mL (≈ 31.9 µM); in [13], 6.25 µg/mL (≈ 16 µM). The MIC in [14] is 6.25 µg/mL (≈ 16 µM); in [15], 3.12 µg/mL (≈ 7.97 µM); in [16], 12.5 µg/mL (≈ 31.9 µM); in data set [17] it was 3.12 µg/mL (≈ 7.97 µM); in data set [18], 3.12 µg/mL (≈ 7.97 µM); in data set [2] (setting [24]), above 100 µg/mL. Moreover, the MIC in [3] (setting [24]) was 12.5 µg/mL (≈ 31.9 µM); in [19], 6.25 µg/mL (≈ 16 µM); in data set [20] it was 3.12 µg/mL (≈ 7.97 µM); in data set [21] it was 6.25 µg/mL (≈ 16 µM); in data set [4] (setting [24]), 3.12 µg/mL (≈ 7.97 µM); in [5] (setting [24]), 3.12 µg/mL (≈ 7.97 µM). Also, the toxicity result in the data set with mice is “lower toxicity to animals and men”. In “in vivo”, this molecule displayed an LD50 above 100 mg/kg.
